Laboratory results taken from patent US4415495A, “5,6;8,9-Tetrahydro-7H-dibenz(d,f)azonines” (Godecke Aktiengesellschaft, priority 1981, dated 1983).

Assays:
[1] = test system: Rats with calcium chloride induced arrhythmias; test: Calcium chloride induced arrhythmias in narcotised rats (prophylactic i.v. administration); format: in vivo; conditions: control 10.9 min.
Source text: By means of the intravenous infusion of a calcium chloride solution, […] induced in narcotised rats which, after termination of the infusion, continue for a certain period of time (modification of the method described by Malinow et al., Arch. Int. Pharmacodyn, 102, 266/1955). This arrhythmic phase is shortened by the prophylactic administration of antiarrhythmic drugs. […] The results of the experiments with calcium chloride induced arrhythmias on rats are summarized in the following Table I. The average period of arrhythmia is calculated from experiments with at least 10 animals.

[2] = in vivo; conditions: mouse, po
Method: The compounds according to the present invention are administered intragastrally to male mice (NMRI) with a body weight of from 20 to 25 g. Each dosage group consists of 4 animals. The LD50 values are determined after having observed the animals for 7 days.

[3] = test system: rabbit eye; test: Local anesthetic action on the rabbit eye (corneal reflex); format: in vivo, rabbits; conditions: for Period of Action: observation discontinued after 60 minutes
Method: The corneal reflex is induced in rabbits using a horse hair which bends with a pressure of about 250 mg (modification of the method described by M. von Frey, Beitrage zur Physiologie des Schmerzsinns, Vehr. d. Kgl. Sachs, Ges. d. Wiss. zu Leipzig, Math.-phys. Kl., 46, 185/1894; Untersuchungen uber die Sinnesfunktionen der menschlichen Haut, Leipzig, 1896). After instillation of local anesthetics into the conjunctival sac of the eye, the number of impacts with the horse hair which result in closure of the eyelid is increased. At intervals of 4 minutes, in each case a maximum of 100 successive impacts are carried out and such an action is taken as being 100%. The period of investigation is at most 60 minutes. The action of the compounds according to the present invention is compared with that of tetracaine and procainamide.
The following Table VII contains the results of the experiments on the rabbit eye. There are also given, in addition to the concentrations of the test solutions which were instilled into the conjunctival sac, the actions of the compounds in % (see description of the method), as well as their period of action. In each case, the observations were discontinued after 60 minutes.

[4] = test system: dogs with coronary ligature; test: Coronary ligature on dogs (period of sinus rhythm from ECG); format: in vivo
Source text: Using narcotised dogs, after thoracotomy, a coronary artery (side branch of the R. interventr. post. or of the R. circumflexus) is ligatured (see. A. S. Harris, Circulation, 1, 1318/1950). The heart rhythm disturbances which occur as a result thereof are, on the day following the operation, recorded on the awake animals and treated with the compounds according to the present invention by intragastral and intravenous administration. Procainamide is used as a positive standard. From the ECG, the time is determined in which, after administration of the test compound, a sinus rhythm can be recognized.
The compounds of Examples 1 (Table III), 4 (Table IV) and 10 (Table V) were tested on dogs with a coronary ligature. All the compounds were, in each case, tested on at least 5 animals.

[5] = test system: guinea pig left ventricle; test: Refractory time of electrically stimulated guinea pig left ventricles (organ bath)
Method: The left ventricles of guinea pig hearts are electrically stimulated in an organ bath, the amplitude of contraction being recorded. By means of a second stimulus, the time is determined below which the heart muscle no longer reacts with a separately resolvable contraction. This time is defined as the refractory time.
The following Table II contains information concerning the maximum tested compound concentrations, as well as the average prolongation of the refractory time measured at this concentration in comparison with the initial value of, in each case, at least 6 experiments.

[6] = Oryctolagus cuniculus, topical, concentration 0.5 %

For `COc1ccc2c(c1)-c1c(ccc(OC)c1O)CC(Cc1ccccc1)N(C)CC2` (single isomer, unassigned; (-)) [Example 1, (-)-6-Benzyl-2,12-dimethoxy-1-hydroxy-7-methyl-5,6;8,9-tetrahydro-7H-dibenz(d,f)azonine], the “average period of arrhythmia” value ([1]; 2.5 mg/kg I.V.) was 4.0 min, the LD50 at 168 h [2] was 680 mg/kg and the inhibition in vivo at 0.1 % ([3]; Oryctolagus cuniculus, topical, concentration 0.1 %) was 89%. For the same compound, the inhibition in vivo at 0.5 % [3, 6] was 100%, the “Period of Action” value ([3]; concentration 0.1 %) was “about 49 Min” and the “Period of Action” value ([3]; concentration 0.5 %) was greater than 60 min. The “average period of eurhythmia” value ([4]; 4 mg/kg i.v.) was 62 min, the “average period of eurhythmia” value ([4]; 10 mg/kg i.g.) was 49 min and the “average period of eurhythmia” value ([4]; 15 mg/kg i.g.) was 99 min. The “average period of eurhythmia” value ([4]; 20 mg/kg i.g.) was 105 min, the “average period of eurhythmia” value ([4]; 25 mg/kg i.g.) was 198 min and the “average prolongation of the refractory time” value (“average prolongation” below) ([5]; 8.0 × 10^-6 g/ml in the bath) was 43 ms.

In the case of `CCN(CC)CCNC(=O)c1ccc(N)cc1` [procainamide, reference compound], the “average period of arrhythmia” value ([1]; 10 mg/kg I.V.) was 7.3 min, the LD50 at 168 h [2] was 1200 mg/kg and the inhibition in vivo at 0.5 % [3, 6] was 1%. For the same compound, the inhibition in vivo at 2 % ([3]; Oryctolagus cuniculus, topical, concentration 2.0 %) was 1%, the “Period of Action” value ([3]; concentration 0.5 %) was 0 min and the “Period of Action” value ([3]; concentration 2.0 %) was 0 min. For the same compound, the “local anesthetic activity (in words)” value ([3]; versus procainamide and tetracaine) was “inactive”, the “average period of eurhythmia” value ([4]; 10 mg/kg i.v.) was 19 min and the “average prolongation” value ([5]; 6.4 × 10^-5 g/ml in the bath) was 7 ms.

With `COc1ccc2c(c1)-c1c(ccc(OC)c1O)CC(CCc1ccccc1)N(C)CC2` (single isomer, unassigned; (+)) [Example 10, (+)-2,12-Dimethoxy-1-hydroxy-7-methyl-6-phenethyl-5,6;8,9-tetrahydro-7H-dibenz(d,f)azonine] the “average period of arrhythmia” value ([1]; 2.5 mg/kg I.V.) was 5.4 min, the LD50 at 168 h [2] was 600 mg/kg and the inhibition in vivo at 1 % ([3]; Oryctolagus cuniculus, topical, concentration 1.0 %) was 100%. For the same compound, the “Period of Action” value ([3]; concentration 1.0 %) was greater than 60 min, the “average period of eurhythmia” value ([4]; 2 mg/kg i.v.) was 40 min and the “average period of eurhythmia” value ([4]; 5 mg/kg i.g.) was 105 min. The “average period of eurhythmia” value ([4]; 10 mg/kg i.g.) was 169 min, the “average period of eurhythmia” value ([4]; 40 mg/kg i.g.) was 185 min and the “average prolongation” value ([5]; 4.0 × 10^-6 g/ml in the bath) was 44 ms.
